- melting point: 143 to 147 °C
Compound: N=C(NCCCCN1CCC(CCCC(N)=O)CC1)NC(=O)c1nc(Cl)c(N)nc1N [Example 1, 4-(1-{4-[N′-(3,5-diamino-6-chloropyrazine-2-carbonyl)guanidino]-butyl}piperidin-4-yl)butyramide]
